We go through eleven molecules from patent publication US11059832B2, “HPK1 inhibitors and methods of using same” (University Health Network, priority 2015, dated 2021).

Structures are written as SMILES.

In assay [1] the test system is SLP-76 serine 376 phosphorylation in α-CD3 stimulated Jurkat E6.1 cells. The experiment in a line: In vitro phosphorylation assay, SLP-76 Ser376 (immunoblot). It is filed as cell-based. Particulars: Homo sapiens, 4 h pretreatment, substantive = >75% inhibition as estimated by immunoblot analysis, read-out: SLP76 S376 Phosphorylation Onset-Substantive* Inhibition. On the procedure:
(§1) Jurkat E6.1 cells were obtained from American Type Culture Collection (ATCC, Manassas, Va.), and maintained according to the supplier's instructions. Cells were washed three times and starved in RPMI 1640 medium supplemented with 0.5% fetal calf serum for 18 h at 37° C. Serum starved cells were pretreated with the indicated concentration of inhibitor for 4 hours before stimulation with 10 μg/ml α-CD3 antibody (BioLegend, Inc., San Diego, Calif.) for 10 min at 37° C. The cells were washed once in phosphate-buffered saline (pH 7.4) containing 10 mm sodium pyrophosphate, 10 mm sodium fluoride, 10 mm EDTA, and 1 mm sodium orthovanadate. Protein lysates were prepared using ice-cold radioimmunoprecipitation assay (RIPA) lysis buffer. A total of 100 μg of cell lysate was loaded onto Bis-Tris gels (Life Technologies, Carlsbad, Calif.) with full-range molecular weight marker as a size reference, and resolved by SDS-PAGE electrophoresis. Proteins were transferred to PVDF membrane (Millipore, Billerica, Mass.), blocked and probed with antibodies for phospho-SLP-76 (Ser376) (rabbit polyclonal #13177; Cell Signaling Technology Inc., Danvers, Mass.), SLP-76 (rabbit polyclonal #4958; Cell Signaling Technology Inc., Danvers, Mass.), phospho-ERK (mouse monoclonal sc-7383; Santa Cruz Biotechnology Inc., Santa Cruz, Calif.) and ERK1/2 (rabbit polyclonal 06-182; Millipore, Billerica, Mass.). Secondary antibodies were diluted 1 in 15,000 and incubated for 1 h at rt. Protein bands were visualized and quantified using Odyssey near infrared imager (LI-COR, Lincoln, Nebr.).
(§2) Table 2 below lists effects of representative compounds of the present invention against SLP-76 serine 376 phosphorylation and ERK1/2 T202/Y204 phosphorylation in α-CD3 stimulated Jurkat E6.1 cells.

Assay [2] has as its system ERK1/2 T202/Y204 phosphorylation in α-CD3 stimulated Jurkat E6.1 cells. Put plainly: In vitro phosphorylation assay, ERK1/2 T202/Y204 (immunoblot). The assay is classed as cell-based. Particulars: Homo sapiens, 4 h pretreatment, read-out: ERK1/2 T202/Y204 Phosphorylation Onset Inhibition. As for the experimental part:
as §1, §2

Another assay deals with T1, FLT3 (Homo sapiens, UniProt P36888).
T1 construct: purchased Invitrogen PV3182
T1 sequence (P36888 27-993): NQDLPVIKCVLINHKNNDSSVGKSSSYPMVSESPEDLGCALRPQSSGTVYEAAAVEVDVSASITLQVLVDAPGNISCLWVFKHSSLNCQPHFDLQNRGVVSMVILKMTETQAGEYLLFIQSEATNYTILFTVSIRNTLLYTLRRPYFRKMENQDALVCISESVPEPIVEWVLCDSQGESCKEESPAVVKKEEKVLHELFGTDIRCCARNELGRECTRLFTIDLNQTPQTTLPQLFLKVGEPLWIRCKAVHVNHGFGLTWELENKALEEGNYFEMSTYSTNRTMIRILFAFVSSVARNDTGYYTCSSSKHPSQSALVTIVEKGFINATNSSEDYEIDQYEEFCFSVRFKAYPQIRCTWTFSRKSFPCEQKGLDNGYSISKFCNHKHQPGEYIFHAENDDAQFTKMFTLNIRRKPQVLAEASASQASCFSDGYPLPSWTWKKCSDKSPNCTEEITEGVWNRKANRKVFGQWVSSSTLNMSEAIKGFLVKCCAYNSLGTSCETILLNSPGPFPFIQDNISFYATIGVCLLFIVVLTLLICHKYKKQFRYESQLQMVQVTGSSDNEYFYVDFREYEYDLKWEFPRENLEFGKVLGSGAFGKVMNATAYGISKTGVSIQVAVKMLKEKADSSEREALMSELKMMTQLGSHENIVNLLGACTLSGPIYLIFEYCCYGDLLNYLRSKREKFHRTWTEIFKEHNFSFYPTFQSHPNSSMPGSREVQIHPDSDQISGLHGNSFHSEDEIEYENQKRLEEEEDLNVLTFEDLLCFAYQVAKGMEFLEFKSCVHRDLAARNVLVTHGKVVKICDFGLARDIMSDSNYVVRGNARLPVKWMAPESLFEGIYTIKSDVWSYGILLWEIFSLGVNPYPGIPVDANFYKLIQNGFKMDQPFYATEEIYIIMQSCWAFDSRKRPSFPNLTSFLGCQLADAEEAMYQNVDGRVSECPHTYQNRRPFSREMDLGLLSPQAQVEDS
The experiment in a line: FLT3 inhibition, FRET based Z'-LYTE Kinase Assay. The following applies: 1 nM FLT3, 940 μM ATP; read-out: IC50 Range Flt3. It is filed as biochemical. On the procedure: (§3) FLT3 and LCK compound inhibition were determined using FRET based Z′-LYTE Kinase Assay Kit with Tyrosine 2 peptide as the substrate (Invitrogen cat #PV3191). […] The % inhibition values were determined according to the manufacturer's directions and IC50 values were obtained using a non-linear 4 point logistic curve fit (XLfit4, IDBS).

A further assay concerns the target T2, human HPK1 (MAP4K1) (Homo sapiens, UniProt Q92918).
T2 construct: human HPK1 (aa 1-346); purchased Invitrogen PV6355
T2 sequence (Q92918 1-346): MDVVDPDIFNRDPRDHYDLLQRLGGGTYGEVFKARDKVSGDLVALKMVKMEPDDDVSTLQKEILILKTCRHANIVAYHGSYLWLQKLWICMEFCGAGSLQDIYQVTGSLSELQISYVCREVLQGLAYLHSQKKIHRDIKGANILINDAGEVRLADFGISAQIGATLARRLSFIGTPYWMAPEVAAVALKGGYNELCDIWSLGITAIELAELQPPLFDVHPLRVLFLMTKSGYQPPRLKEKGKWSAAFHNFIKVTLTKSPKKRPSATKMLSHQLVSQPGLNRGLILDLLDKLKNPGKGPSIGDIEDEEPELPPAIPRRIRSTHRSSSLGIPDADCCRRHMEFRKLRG
Put plainly: HPK1 inhibition assay (indirect ELISA). The assay is classed as biochemical. Particulars: GST-HPK1 0.6 nM, 12 μM ATP; read-out: IC50 Range HPK1. In outline:
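GST-tagged human HPK1 (aa 1-346, 0.6 nM) phosphorylated MBP-coated wells with 12 μM ATP in MOPS pH 7.2/Mg2+ buffer for 30 min after 15-min compound preincubation; phospho-Thr detected by antibody ELISA with TMB, 450 nm. Tested at 10 μM or 10-point titration (typically 50-0.1 μM); IC50 by 4-parameter logistic fit.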
On the technique in general: In an ELISA, binding on a coated surface is turned into a signal by an enzyme label.

The next assay concerns the target T3, LCK (Homo sapiens, UniProt P06239).
T3 construct: purchased Invitrogen P3043
Put plainly: LCK inhibition, FRET based Z'-LYTE Kinase Assay. It is filed as biochemical. The following applies: 25 nM LCK, 180 μM ATP; read-out: IC50 Range Lck. As for the experimental part: as §3

By IC50 is commonly meant the concentration needed to halve the response being measured.

T3 sequence (P06239 whole entry, species assumed): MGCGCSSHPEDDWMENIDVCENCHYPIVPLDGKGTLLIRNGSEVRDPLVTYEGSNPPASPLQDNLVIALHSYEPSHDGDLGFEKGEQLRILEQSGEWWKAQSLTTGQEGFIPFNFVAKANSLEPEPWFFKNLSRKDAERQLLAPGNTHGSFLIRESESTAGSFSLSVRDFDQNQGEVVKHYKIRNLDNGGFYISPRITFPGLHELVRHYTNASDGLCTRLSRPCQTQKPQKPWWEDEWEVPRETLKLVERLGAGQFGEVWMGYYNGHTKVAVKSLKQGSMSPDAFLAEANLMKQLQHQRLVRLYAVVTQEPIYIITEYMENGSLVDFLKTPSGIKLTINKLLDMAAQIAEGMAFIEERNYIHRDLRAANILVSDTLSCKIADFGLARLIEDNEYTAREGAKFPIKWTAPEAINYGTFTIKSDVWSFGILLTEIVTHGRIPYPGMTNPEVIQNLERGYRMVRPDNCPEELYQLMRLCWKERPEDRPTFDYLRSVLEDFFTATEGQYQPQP

As to `CN1CCN(c2ccc3nc(-c4c(NC5CCCC5)c5sccc5[nH]c4=O)[nH]c3c2)CC1` [Example A34, 7-(cyclopentylamino)-6-(6-(4-methylpiperazin-1-yl)-1H-benzo[d]imidazol-2-yl)thieno[3,2-b]pyridin-5(4H)-one], the IC75 in assay [1] is 1 to 3 µM. The minimal effective concentration in assay [2] is 3 µM. The IC50 on FLT3, at human HPK1 (MAP4K1) and at LCK was no more than 0.05 µM throughout.
As for `CN1CCN(c2ccc3nc(-c4c(N[C@@H]5CCOC5)c5ccsc5[nH]c4=O)[nH]c3c2)CC1` [Example A10, (R)-5-(6-(4-methylpiperazin-1-yl)-1H-benzo[d]imidazol-2-yl)-4-((tetrahydrofuran-3-yl)amino)thieno[2,3-b]pyridin-6(7H)-one], the IC75 in assay [1] is 1 to 3 µM. Further, the minimal effective concentration in assay [2] is greater than 3 µM. In addition, the IC50 on FLT3 was no more than 0.05 µM; on human HPK1 (MAP4K1), no more than 0.05 µM; at LCK it was 0.05 to 0.5 µM.
For `CN1CCN(c2ccc3nc(-c4c(N[C@H]5CCCC[C@H]5O)c5ccsc5[nH]c4=O)[nH]c3c2)CC1` [Example A57, 4-(((1S,2R)-2-hydroxy-cyclohexyl)amino)-5-(6-(4-methylpiperazin-1-yl)-1H-benzo[d]imidazol-2-yl)thieno-[2,3-b]pyridin-6(7H)-one], the IC75 in assay [1] was 0.3 to 1 µM. Moreover, the minimal effective concentration in assay [2] was greater than 3 µM. The IC50 at FLT3 is no more than 0.05 µM; on human HPK1 (MAP4K1) it was no more than 0.05 µM; on LCK, 0.05 to 0.5 µM.
Take `CN1CCN(c2ccc3nc(-c4c(N[C@H]5CC[C@H](O)CC5)c5sccc5[nH]c4=O)[nH]c3c2)CC1` [Example A37, 7-(((1r,4r)-4-hydroxycyclohexyl)amino)-6-(6-(4-methylpiperazin-1-yl)-1H-benzo[d]imidazol-2-yl)thieno[3,2-b]pyridin-5(4H)-one]: in assay [1], the IC75 is 0.1 to 0.3 µM. In addition, the minimal effective concentration in assay [2] lay in the range of 1 to 3 µM. The concentration for half-maximal inhibition (IC50) on FLT3, at human HPK1 (MAP4K1) and on LCK was no more than 0.05 µM in each case.
Regarding `CN1CCN(c2ccc3nc(-c4c(N)c5cscc5[nH]c4=O)[nH]c3c2)CC1` [Example A23, 4-amino-3-(6-(4-methylpiperazin-1-yl)-1H-benzo[d]imidazol-2-yl)thieno[3,4-b]pyridin-2(1H)-one], the IC75 in assay [1] was 0.3 to 1 µM. Moreover, the minimal effective concentration in assay [2] was greater than 3 µM. In addition, the IC50 on FLT3, on human HPK1 (MAP4K1) and at LCK was no more than 0.05 µM in each case.
`CN1CCN(c2ccc3nc(-c4c(N)c5c(N6CCNCC6)csc5[nH]c4=O)[nH]c3c2)CC1` [Example A21, 4-amino-5-(6-(4-methylpiperazin-1-yl)-1H-benzo[d]imidazol-2-yl)-3-(piperazin-1-yl)thieno[2,3-b]pyridin-6(7H)-one]: in assay [1], the IC75 was greater than 3 µM. In assay [2], the minimal effective concentration was greater than 3 µM. The values for the IC50 at FLT3, at human HPK1 (MAP4K1) and on LCK were 0.05 to 0.5 µM, no more than 0.05 µM and greater than 0.5 µM, respectively.
For `CN1CCC(Nc2c(-c3nc4ccc(N5CCOCC5)cc4[nH]3)c(=O)[nH]c3sccc23)CC1` [Example A18, 4-((1-methylpiperidin-4-yl)amino)-5-(6-morpholino-1H-benzo[d]imidazol-2-yl)thieno[2,3-b]pyridin-6(7H)-one], in assay [1], the IC75 is 0.3 to 1 µM. Also, in assay [2], the minimal effective concentration is greater than 3 µM. The figures for the IC50 on FLT3, at human HPK1 (MAP4K1) and at LCK were no more than 0.05 µM, no more than 0.05 µM and 0.05 to 0.5 µM, respectively.
Turning to `CN1CCN(c2ccc3nc(-c4c(N[C@H]5CCC[C@H]5O)c5ccsc5[nH]c4=O)[nH]c3c2)CC1` [Example A58, 4-(((1S,2R)-2-hydroxy-cyclopentyl)amino)-5-(6-(4-methylpiperazin-1-yl)-1H-benzo[d]imidazol-2-yl)-thieno[2,3-b]pyridin-6(7H)-one], the IC75 in assay [1] is 0.1 to 0.3 µM. The minimal effective concentration in assay [2] is greater than 3 µM. Further, the IC50 on FLT3 is no more than 0.05 µM; at human HPK1 (MAP4K1), no more than 0.05 µM; on LCK, 0.05 to 0.5 µM.
On to `CN1CCN(c2ccc3nc(-c4c(N)c5sccc5[nH]c4=O)[nH]c3c2)CC1` [Example A30, 7-amino-6-(6-(4-methylpiperazin-1-yl)-1H-benzo[d]imidazol-2-yl)thieno[3,2-b]pyridin-5(4H)-one], for which, in assay [1], the IC75 is 0.3 to 1 µM. For the same molecule, in assay [2], the minimal effective concentration was greater than 3 µM. In addition, the IC50 on FLT3, on human HPK1 (MAP4K1) and at LCK was no more than 0.05 µM throughout.
With `O=c1[nH]c2ccsc2c(NC2CCNCC2)c1-c1nc2ccc(N3CCOCC3)cc2[nH]1` [Example A43, 6-(6-morpholino-1H-benzo[d]imidazol-2-yl)-7-(piperidin-4-ylamino)thieno[3,2-b]pyridin-5(4H)-one], the IC75 in assay [1] is 0.1 to 0.3 µM. Also, the minimal effective concentration in assay [2] was greater than 3 µM. Besides, the IC50 at FLT3 is no more than 0.05 µM; at human HPK1 (MAP4K1), no more than 0.05 µM; at LCK, 0.05 to 0.5 µM.
Take `CN1CCN(c2ccc3nc(-c4c(N[C@H]5CCNC[C@H]5F)c5ccsc5[nH]c4=O)[nH]c3c2)CC1` (relative stereo) [Example A55, 4-(((3R*,4S*)-3-fluoropiperidin-4-yl)amino)-5-(6-(4-methylpiperazin-1-yl)-1H-benzo[d]imidazol-2-yl)thieno[2,3-b]pyridin-6(7H)-one]: the half-inhibitory concentration (IC50) at FLT3 was no more than 0.05 µM; at human HPK1 (MAP4K1) it was no more than 0.05 µM; at LCK, 0.05 to 0.5 µM.
